This is an account of results in patent US20240383904A1, “HETEROCYCLIC COMPOUNDS” (Hoffmann-La Roche Inc., priority 2021, published 2024).

Structures are written as SMILES. pIC50: −log10 of the molar value. Bounds are passed on as bounds.

As a reminder, the pIC50 is the negative decadic logarithm of the IC50, by convention in mol/L. A lower pIC50 goes with a high IC50. What is called IC50 is the point on the concentration scale where inhibition reaches its midpoint. Read a low IC50 as greater potency in that assay.

One assay concerns the target T1, MAGL (Homo sapiens, UniProt Q99685).
T1 sequence (Q99685 1-303): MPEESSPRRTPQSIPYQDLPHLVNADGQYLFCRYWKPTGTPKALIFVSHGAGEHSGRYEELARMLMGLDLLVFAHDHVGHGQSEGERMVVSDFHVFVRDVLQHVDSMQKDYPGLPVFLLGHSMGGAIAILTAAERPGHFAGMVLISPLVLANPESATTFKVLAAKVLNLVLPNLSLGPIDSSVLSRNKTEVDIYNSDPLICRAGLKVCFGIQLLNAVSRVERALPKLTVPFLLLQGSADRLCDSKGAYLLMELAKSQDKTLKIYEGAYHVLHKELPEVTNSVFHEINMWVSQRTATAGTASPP
In words: 2-AG assay: MAGL inhibitory activity by hydrolysis of 2-arachidonoylglycerol to arachidonic acid, followed by mass spectrometry. The assay is classed as biochemical. The conditions noted are these: 15 min preincubation, 30 min reaction at RT, 8 μM 2-arachidonoylglycerol. An excerpt:
Compounds of formula (I) were profiled for MAGL inhibitory activity by determining the enzymatic activity by following the hydrolysis of the natural substrate 2-arachidonoylglycerol (2-AG) resulting in arachidonic acid, which can be followed by mass spectrometry. This assay is hereinafter abbreviated “2-AG assay”.
Compounds of formula (I) were profiled for MAGL inhibitory activity by determining the enzymatic activity by following the hydrolysis of the natural substrate 2-arachidonoylglycerol (2-AG) resulting in arachidonic acid, which can be followed by mass spectrometry. This assay is hereinafter abbreviated “2-AG assay”. The 2-AG assay was carried out in 384 well polypropylene assay plates. Compound dilutions were made in 100% DMSO in a polypropylene plate in 3-fold dilution steps to give a final concentration range in the assay from 12.5 μM to […]. Compound dilutions were added to MAGL protein in assay buffer (50 mM TRIS, 1 mM EDTA, 0.01% (v/v) Tween-20, 2.5% (v/v) DMSO). After shaking, the plate was incubated for 15 min at RT. To start the reaction, 2-arachidonoylglycerol in assay buffer was added. The final concentrations in the assay was […] for MAGL protein and 8 μM 2-arachidonoylglyerol. After shaking and 30 min incubation at RT, the reaction was quenched by the addition of two assay volumes of acetonitrile containing 4 μM of d8-arachidonic acid. The amount of arachidonic acid formed was traced by an online SPE system (Agilent Rapidfire) coupled to a triple quadrupole mass spectrometer. A C18 SPE cartridge (Agilent G9205A) was used in an acetonitrile/water liquid setup. The mass spectrometer was operated in negative electrospray mode following the mass transitions 303.1→259.1 for arachidonic acid and 311.1→267.0 for d8-arachidonic acid. The activity of the compounds was calculated based on the ratio of intensities [arachidonic acid/d 8-arachidonic acid].
`O=C1NCC2(CN(C(=O)N3CC4(CC(Cc5ccc(C(F)(F)F)cc5F)C4)C3)C2)N1` [Example 25, 2-[6-[2-fluoro-4-(trifluoromethyl)benzyl]-2-azaspiro[3.3]heptane-2-carbonyl]-2,5,7-triazaspiro[3.4]octan-6-one] had a negative-log IC50 (pIC50) of 10.30. Same read-out and setting: as for `O=C1NC2(CO1)CN(C(=O)N1CC3(CC(Cc4ccc(OC(F)(F)F)cn4)C3)C1)C2` [Example 26, 2-[6-[[5-(trifluoromethoxy)-2-pyridyl]methyl]-2-azaspiro[3.3]heptane-2-carbonyl]-7-oxa-2,5-diazaspiro[3.4]octan-6-one], the figure is 9.96. Still for that read-out and setting: as for `CS(=O)(=O)c1cc(C(F)(F)F)ccc1CC1CC2(C1)CN(C(=O)N1CC3(COC(=O)N3)C1)C2` [Example 27, 2-[6-[2-mesy1-4-(trifluoromethyl)benzyl]-2-azaspiro[3.3]heptane-2-carbonyl]-7-oxa-2,5-diazaspiro[3.4]octan-6-one], the figure is 9.85. In the case of `O=C1NC2(CO1)CN(C(=O)N1CC3(CC(Cc4ncc(C(F)(F)F)cc4F)C3)C1)C2` [Example 28, 2-[6-[[3-fluoro-5-(trifluoromethyl)-2-pyridyl]methyl]-2-azaspiro[3.3]heptane-2-carbonyl]-7-oxa-2,5-diazaspiro[3.4]octan-6-one], the pIC50 is 9.64.

Regarding `CS(=O)(=O)c1cc(CC2CC3(C2)CN(C(=O)N2CC4(COC(=O)N4)C2)C3)ccc1C(F)(F)F` [Example 29, 2-[6-[3-mesyl-4-(trifluoromethyl)benzyl]-2-azaspiro[3.3]heptane-2-carbonyl]-7-oxa-2,5-diazaspiro[3.4]octan-6-one], the pIC50 was 9.47. `CS(=O)(=O)c1cc(F)cc(CC2CC3(C2)CN(C(=O)N2CC4(COC(=O)N4)C2)C3)c1` [Example 30, 2-[6-(3-fluoro-5-mesyl-benzyl)-2-azaspiro[3.3]heptane-2-carbonyl]-7-oxa-2,5-diazaspiro[3.4]octan-6-one] had a pIC50 of 9.35. `O=C1NC2(CO1)CN(C(=O)N1CC3(CC(Cc4ccc(F)cn4)C3)C1)C2` [Example 31, 2-[6-[(5-fluoro-2-pyridyl)methyl]-2-azaspiro[3.3]heptane-2-carbonyl]-7-oxa-2,5-diazaspiro[3.4]octan-6-one]: the pIC50 was 9.21. Same read-out and setting: as for `O=C1NC2(CO1)CN(C(=O)N1CC3(CC(Cc4cnc(C(F)(F)F)nc4)C3)C1)C2` [Example 32, 2-[6-[[2-(trifluoromethyl)pyrimi-din-5-y1]methyl]-2-azaspiro[3.3]heptane-2-carbonyl]-7-oxa-2,5-diazaspiro[3.4]octan-6-one], the figure is 9.17; as for `CS(=O)(=O)c1cccc(CC2CC3(C2)CN(C(=O)N2CC4(COC(=O)N4)C2)C3)c1` [Example 33, 2-[6-(3-mesylbenzyl)-2-azaspiro[3.3]heptane-2-carbonyl]-7-oxa-2,5-diazaspiro[3.4]octan-6-one], 9.06; as for `O=C1NCC2(CN(C(=O)N3CC4(CC(Cc5ccc(F)cc5C(F)(F)F)C4)C3)C2)N1` [Example 34, 2-[6-[4-fluoro-2-(trifluoromethyl)benzyl]-2-azaspiro[3.3]heptane-2-carbonyl]-2,5,7-triazaspiro[3.4]octan-6-one], 8.96. `CS(=O)(=O)c1cc(C(F)(F)F)ccc1CC1CC2(C1)CN(C(=O)N1CC3(CCC(=O)N3)C1)C2` [Example 35, 2-[6-[2-mesyl-4-(trifluoromethyl)benzyl]-2-azaspiro[3.3]heptane-2-carbonyl]-2,5-diazaspiro[3.4]octan-6-one] showed a pIC50 of 8.84. The same measure, in the same setting: as for `O=C1NC2(CO1)CN(C(=O)N1CC3(CC(Cc4ccc(C(F)(F)F)nn4)C3)C1)C2` [Example 36, 2-[6-[[6-(trifluoromethyl)pyrida-zin-3-yl]methyl]-2-azaspiro[3.3]heptane-2-carbonyl]-7-oxa-2,5-diazaspiro[3.4]octan-6-one], the figure is 8.84. In turn, `O=C1NC2(CO1)CN(C(=O)N1CC3(CC(Cc4cncc(F)c4)C3)C1)C2` [Example 37, 2-[6-[(5-fluoro-3-pyridyl)methyl]-2-azaspiro[3.3]heptane-2-carbonyl]-7-oxa-2,5-diazaspiro[3.4]octan-6-one] had a pIC50 of 8.72. As for `O=C1NCC2(CN(C(=O)N3CC4(CC(Cc5ccc(F)cc5F)C4)C3)C2)N1` [Example 38, 2-[6-(2,4-difluorobenzyl)-2-azaspiro[3.3]heptane-2-carbonyl]-2,5,7-triazaspiro[3.4]octan-6-one], the negative logarithm of the IC50 (pIC50) is 8.63. On the same count and under the same terms, the value for `CS(=O)(=O)c1ccc(CC2CC3(C2)CN(C(=O)N2CC4(CCC(=O)N4)C2)C3)cc1C(F)(F)F` [Example 39, 2-[6-[4-mesy1-3-(trifluoromethyl)benzyl]-2-azaspiro[3.3]heptane-2-carbonyl]-2,5-diazaspiro[3.4]octan-6-one] was 8.62; that for `CS(=O)(=O)c1cc(CC2CC3(C2)CN(C(=O)N2CC4(CCC(=O)N4)C2)C3)ccc1C(F)(F)F` [Example 40, 2-[6-[3-mesyl-4-(trifluoromethyl)benzyl]-2-azaspiro[3.3]heptane-2-carbonyl]-2,5-diazaspiro[3.4]octan-6-one] was 8.52; that for `CS(=O)(=O)c1cc(F)ccc1CC1CC2(C1)CN(C(=O)N1CC3(CCC(=O)N3)C1)C2` [Example 41, 2-[6-(4-fluoro-2-mesyl-benzyl)-2-azaspiro[3.3]heptane-2-carbonyl]-2,5-diazaspiro[3.4]octan-6-one] was 8.26. As to `O=C1NCC2(CN(C(=O)N3CC4(CC(Cc5ccc(C(F)(F)F)nc5)C4)C3)C2)N1` [Example 42, 2-[6-[[6-(trifluoromethyl)-3-pyridyl]methyl]-2-azaspiro[3.3]heptane-2-carbonyl]-2,5,7-triazaspiro[3.4]octan-6-one], the pIC50 was 7.27. On the same count and under the same terms, the value for `O=C1NC2(CCO1)CN(C(=O)N1CC3(CC(Cc4cnc(C(F)(F)F)cn4)C3)C1)C2` [Example 43, 2-[6-[[5-(trifluoromethyl)pyrazin-2-yl]methyl]-2-azaspiro[3.3]heptane-2-carbonyl]-7-oxa-2,5-diazaspiro[3.5]nonan-6-one] was 6.19; that for `CS(=O)(=O)c1ccc(CC2CC3(C2)CN(C(=O)N2CC4(COC(=O)N4)C2)C3)cc1C(F)(F)F` [Example 44, 2-[6-[4-mesyl-3-(trifluoromethyl)benzyl]-2-azaspiro[3.3]heptane-2-carbonyl]-7-oxa-2,5-diazaspiro[3.4]octan-6-one] was 9.49; that for `O=C1NCC2(CN(C(=O)N3CC4(CCC(Cc5ccc(C(F)(F)F)cn5)CC4)C3)C2)N1` [Example 45, 2-[7-[[5-(trifluoromethyl)-2-pyridyl]methyl]-2-azaspiro[3.5]nonane-2-carbonyl]-2,5,7-triazaspiro[3.4]octan-6-one] was 7.58. Compound `O=C1NC2(CO1)CN(C(=O)N1CC3(CCC(Cc4ccc(C(F)(F)F)cn4)C3)C1)C2` (stereo not drawn) [Example 46, 2-[6-[[5-(trifluoromethyl)-2-pyridyl]methyl]-2-azaspiro[3.4]octane-2-carbonyl]-7-oxa-2,5-diazaspiro[3.4]octan-6-one] gave a pIC50 of 9.82. Still for that read-out and setting: as for `O=C1NC2(CO1)CN(C(=O)N1CC3(CCC(Oc4ccc(C(F)(F)F)nn4)CC3)C1)C2` [Example 47, 2-[7-[6-(trifluoromethyl)pyrida-zin-3-y1]oxy-2-azaspiro[3.5]nonane-2-carbonyl]-7-oxa-2,5-diazaspiro[3.4]octan-6-one], the figure is 8.53; as for `O=C1NC2(CO1)CN(C(=O)N1CC3(CC(c4ccc(S(=O)(=O)C(F)(F)F)cc4)C3)C1)C2` [Example 48, 2-[6-(4-triflylphenyl)-2-azaspiro[3.3]heptane-2-carbonyl]-7-oxa-2,5-diazaspiro[3.4]octan-6-one], 9.82; as for `O=C1NC2(CO1)CN(C(=O)N1CC3(CC(CNC4(C(F)(F)F)CC4)C3)C1)C2` [Example 49, 2-[6-[[[1-(trifluoromethyl)cyclopro-ropyl]amino]methyl]-2-azaspiro[3.3]heptane-2-carbonyl]-7-oxa-2,5-diazaspiro[3.4]octan-6-one], 9.11. Regarding `O=C1NC2(CO1)CN(C(=O)N1CC3(CC(NS(=O)(=O)c4cccc(C(F)(F)F)c4)C3)C1)C2` [Example 50, N-[2-(6-keto-7-oxa-2,5-diazaspiro[3.4]octane-2-carbonyl)-2-azaspiro[3.3]heptan-6-yl]-3-(trifluoromethyl)benzene-sulfonamide], the pIC50 was 9.11.

Staying with this assay, now noted: unit nM.
In the case of `O=C1NC2(CO1)CN(C(=O)N1CC3(CC(Cc4ccc(C(F)(F)F)cc4F)C3)C1)C2` [Example 24, 2-[6-[2-fluoro-4-(trifluoromethyl)benzyl]-2-azaspiro[3.3]heptane-2-carbonyl]-7-oxa-2,5-diazaspiro[3.4]octan-6-one], the IC50 was less than 5 nM.
